pIC50: −log10 of the molar value. “Also recorded” adds a separate entry of the source. Read-outs that look alike come from different tables or passages of the source.
Key:
Assay type in all cases: biochemical
[1] = target: D. plexippus-Na^+/K^+-ATPase (Danaus plexippus, UniProt K0G7C4); test: In vitro inhibition assay of D. plexippus Na+/K+-ATPase (phosphate release); settings: for inhibition of D. plexippus Na^+/K^+-ATPase compared to ouabain: DP, F-test comparison of entire dose-response curves with ouabain; for fold difference between IC50 values, non-adapted (E. core/S. gregaria) vs adapted (D. plexippus) insect Na^+/K^+-ATPase: Figure 2, last number, S. gregaria values used for ouabain and digitoxigenin; for pIC50: read-out: IC50 D. plexippus- Na^+/K^+-ATPase, Na+/K+-ATPase extracted from butterfly brains
Protocol: (§1) Danaus plexippus was caught in the field or purchased; E. core and S. gregaria were obtained commercially, with additional E. core from a laboratory colony. […] Briefly, brains dissected from butterflies stored at -80°C or recta from locusts were homogenized (individually or pooled) with an all glass grinder (Wheaton) in deionized water, frozen at -80°C, freeze-dried, and stored frozen until use. For in vitro assays, lyophilisates were dissolved in water, sonicated in an ultrasonic bath, and centrifuged to remove undissolved matter. All cardiac glycosides were tested at least with three biological replicates of Na^+/K^+-ATPase (i.e., Na^+/K^+-ATPase from genetically different specimens or pools of specimens).
(§2) Means of duplicate determinations (i.e., technical replicates) were used as data points. In consequence, each data point of a dose–response curve is the mean of at least three biological replicates based on two technical replicates, each. […] Here, technical replicates collected on the same 96-well plate were averaged and used as data points.
(§3) Stock solutions of cardiac glycosides, as well as pregnane glycosides, were prepared from crystalline compounds in DMSO. While concentrations of all other compounds were based on mass, calactin, and calotropin stock solutions were adjusted with HPLC using digitoxin as a reference.
(§4) Pairwise statistical comparisons of dose-response curves were carried out using the “compare datasets” option in OriginPro, which is based on an F-Test evaluating if the two curves are identical. Correlation analyses using log10-transformed IC50 values was also carried out with OriginPro. […] To analyze relative selectivity without a reference, we also plotted the fold differences between the IC50 values of individual cardenolides for non-adapted and adapted insect Na^+/K^+-ATPase and compared them to mammalian (lamb) Na^+/K^+-ATPase (Figure 2).

E. core-Na^+/K^+-ATPase = E. core-Na^+/K^+-ATPase (Euploea core, UniProt A0A5C0C9F5); test: In vitro inhibition assay of E. core Na+/K+-ATPase (phosphate release); settings: for inhibition of E. core Na^+/K^+-ATPase compared to ouabain: EC, F-test comparison of entire dose-response curves with ouabain; for pIC50: read-out: IC50 E. core- Na^+/K^+-ATPase, Na+/K+-ATPase extracted from butterfly brains
Protocol: as §1, §2, §3, §4

[2] = target: S. gregaria-Na^+/K^+-ATPase (Schistocerca gregaria, UniProt A0A8E5JSN5)
Protocol: as §1, §2, §3, §4

lamb Na^+/K^+-ATPase = test: Fold differences of IC50 between lamb and insect Na+/K+-ATPases; settings: lamb IC50 inferred from ref Paula et al., 2005
Protocol: as §4

[3] = SG; F-test comparison of entire dose-response curves with ouabain
[4] = read-out: IC50 S. gregaria- Na^+/K^+-ATPase; Na+/K+-ATPase extracted from locust recta

Chain of D. plexippus-Na^+/K^+-ATPase (K0G7C4 1-1009): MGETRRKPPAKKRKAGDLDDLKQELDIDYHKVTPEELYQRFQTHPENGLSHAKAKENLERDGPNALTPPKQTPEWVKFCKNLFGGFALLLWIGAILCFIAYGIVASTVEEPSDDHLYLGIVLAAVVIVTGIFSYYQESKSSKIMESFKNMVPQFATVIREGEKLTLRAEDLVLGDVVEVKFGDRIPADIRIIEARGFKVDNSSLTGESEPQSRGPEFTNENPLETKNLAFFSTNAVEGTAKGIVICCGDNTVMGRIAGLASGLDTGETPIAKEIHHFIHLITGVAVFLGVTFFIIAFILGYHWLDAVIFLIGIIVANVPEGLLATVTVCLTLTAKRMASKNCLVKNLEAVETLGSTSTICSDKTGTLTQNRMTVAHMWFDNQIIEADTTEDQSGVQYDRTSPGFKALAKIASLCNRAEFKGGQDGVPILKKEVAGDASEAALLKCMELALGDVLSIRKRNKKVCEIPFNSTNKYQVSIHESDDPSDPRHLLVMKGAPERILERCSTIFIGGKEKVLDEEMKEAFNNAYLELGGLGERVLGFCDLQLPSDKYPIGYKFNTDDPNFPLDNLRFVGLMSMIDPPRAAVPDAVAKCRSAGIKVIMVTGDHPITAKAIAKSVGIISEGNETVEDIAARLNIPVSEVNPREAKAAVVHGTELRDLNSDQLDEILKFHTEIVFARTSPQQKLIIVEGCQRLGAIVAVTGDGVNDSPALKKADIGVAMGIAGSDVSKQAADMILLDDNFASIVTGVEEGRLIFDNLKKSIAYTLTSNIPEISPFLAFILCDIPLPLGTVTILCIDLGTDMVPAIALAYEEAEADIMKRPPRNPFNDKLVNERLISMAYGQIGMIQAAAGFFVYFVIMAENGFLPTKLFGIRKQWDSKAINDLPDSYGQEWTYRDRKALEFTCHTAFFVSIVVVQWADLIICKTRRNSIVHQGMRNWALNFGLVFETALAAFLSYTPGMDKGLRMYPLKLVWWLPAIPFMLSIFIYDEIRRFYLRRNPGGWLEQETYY
Chain of S. gregaria-Na^+/K^+-ATPase (A0A8E5JSN5 1-1039): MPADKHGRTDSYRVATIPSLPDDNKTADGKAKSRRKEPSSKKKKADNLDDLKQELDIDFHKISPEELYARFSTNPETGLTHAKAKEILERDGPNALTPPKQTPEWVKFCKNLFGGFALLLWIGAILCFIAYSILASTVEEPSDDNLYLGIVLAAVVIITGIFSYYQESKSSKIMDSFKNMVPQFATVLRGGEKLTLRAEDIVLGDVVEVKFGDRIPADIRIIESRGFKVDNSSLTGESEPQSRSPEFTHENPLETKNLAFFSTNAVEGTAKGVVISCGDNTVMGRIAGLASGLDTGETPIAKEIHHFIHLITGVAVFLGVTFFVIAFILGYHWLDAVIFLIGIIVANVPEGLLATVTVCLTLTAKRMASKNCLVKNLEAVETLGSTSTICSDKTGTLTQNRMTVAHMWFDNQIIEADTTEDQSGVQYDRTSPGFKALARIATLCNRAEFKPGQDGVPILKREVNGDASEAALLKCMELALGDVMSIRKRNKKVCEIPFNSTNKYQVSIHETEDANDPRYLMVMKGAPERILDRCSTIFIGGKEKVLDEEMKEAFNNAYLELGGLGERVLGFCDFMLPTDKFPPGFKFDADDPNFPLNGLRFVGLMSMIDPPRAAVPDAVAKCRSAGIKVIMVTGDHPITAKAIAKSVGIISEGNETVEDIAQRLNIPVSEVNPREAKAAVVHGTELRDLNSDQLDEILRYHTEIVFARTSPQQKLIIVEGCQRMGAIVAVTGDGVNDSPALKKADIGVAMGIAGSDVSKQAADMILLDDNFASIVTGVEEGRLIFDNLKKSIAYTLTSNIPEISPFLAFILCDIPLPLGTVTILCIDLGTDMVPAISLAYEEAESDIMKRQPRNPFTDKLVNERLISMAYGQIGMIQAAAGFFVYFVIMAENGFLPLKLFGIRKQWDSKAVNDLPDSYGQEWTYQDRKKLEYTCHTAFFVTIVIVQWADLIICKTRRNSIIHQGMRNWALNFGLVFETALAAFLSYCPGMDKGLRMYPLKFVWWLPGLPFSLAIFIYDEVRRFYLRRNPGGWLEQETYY
Chain of E. core-Na^+/K^+-ATPase (A0A5C0C9F5 1-1013): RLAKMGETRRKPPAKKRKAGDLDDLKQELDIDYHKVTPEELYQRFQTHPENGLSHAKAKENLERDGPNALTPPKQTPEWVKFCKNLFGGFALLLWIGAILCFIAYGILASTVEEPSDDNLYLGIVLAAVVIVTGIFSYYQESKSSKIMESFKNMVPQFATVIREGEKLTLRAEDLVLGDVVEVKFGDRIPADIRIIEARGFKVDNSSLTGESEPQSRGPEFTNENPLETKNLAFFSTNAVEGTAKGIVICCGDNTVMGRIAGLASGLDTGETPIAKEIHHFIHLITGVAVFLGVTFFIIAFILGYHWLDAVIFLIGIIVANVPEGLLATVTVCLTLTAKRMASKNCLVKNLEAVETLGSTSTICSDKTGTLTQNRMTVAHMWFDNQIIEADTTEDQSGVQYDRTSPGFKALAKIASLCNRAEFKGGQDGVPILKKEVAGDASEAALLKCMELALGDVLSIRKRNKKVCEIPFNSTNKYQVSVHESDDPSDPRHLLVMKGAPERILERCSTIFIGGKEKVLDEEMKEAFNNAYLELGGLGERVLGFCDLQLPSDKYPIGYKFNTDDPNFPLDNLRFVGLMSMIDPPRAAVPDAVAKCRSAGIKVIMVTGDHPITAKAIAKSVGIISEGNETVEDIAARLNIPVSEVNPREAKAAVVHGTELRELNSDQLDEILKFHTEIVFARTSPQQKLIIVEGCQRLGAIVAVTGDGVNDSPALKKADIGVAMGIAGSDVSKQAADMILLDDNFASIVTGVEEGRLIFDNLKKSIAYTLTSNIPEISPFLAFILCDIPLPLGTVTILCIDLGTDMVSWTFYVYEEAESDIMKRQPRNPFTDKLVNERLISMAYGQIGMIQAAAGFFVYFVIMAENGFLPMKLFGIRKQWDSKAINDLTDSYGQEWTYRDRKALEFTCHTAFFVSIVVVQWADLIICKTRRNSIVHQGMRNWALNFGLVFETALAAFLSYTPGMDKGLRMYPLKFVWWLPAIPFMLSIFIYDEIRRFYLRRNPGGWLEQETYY

SMILES | inhibition of D. plexippus Na^+/K^+-ATPase compared to ouabain [1] | fold difference between IC50 values, non-adapted (E. core/S. gregaria) vs adapted (D. plexippus) insect Na^+/K^+-ATPase [1] [x] | pIC50 [1] | inhibition of E. core Na^+/K^+-ATPase compared to ouabain (E. core-Na^+/K^+-ATPase) | pIC50 (E. core-Na^+/K^+-ATPase) | inhibition by glycoside relative to corresponding genin (strophanthidin) on D. plexippus-Na^+/K^+-ATPase ([1]; cymarin vs strophanthidin) | pIC50 ([2]; Na+/K+-ATPase extracted from locust recta; read-out: IC50 S. gregaria- Na^+/K^+-ATPase) | inhibition of S. gregaria Na^+/K^+-ATPase compared to ouabain [2, 3] | fold difference between IC50 values, lamb vs adapted insect (D. plexippus) Na^+/K^+-ATPase (lamb Na^+/K^+-ATPase; Figure 2, first number) [x] | fold difference between IC50 values, lamb vs non-adapted insect (E. core/S. gregaria) Na^+/K^+-ATPase (lamb Na^+/K^+-ATPase; Figure 2, second number) [x] | pIC50 [2, 4]
C[C@@H]1C[C@@H](O)[C@]2(O)O[C@@H]3C[C@@]4(C=O)[C@@H](CC[C@@H]5[C@@H]4CC[C@]4(C)[C@@H](C6=CC(=O)OC6)CC[C@]54O)C[C@H]3O[C@@H]2O1 [calactin] | more potently than ouabain; also recorded: > ouabain; F2,7 = 4706.35, p < 0.001 | 23 | 5.67 | more potently than ouabain; also recorded: > ouabain; F2,7 = 496.50, p < 0.001 | 7.04 |  |  |  |  |  | 
C[C@@H]1C[C@H](O)[C@]2(O)O[C@@H]3C[C@@]4(C=O)[C@@H](CC[C@@H]5[C@@H]4CC[C@]4(C)[C@@H](C6=CC(=O)OC6)CC[C@]54O)C[C@H]3O[C@@H]2O1 [calotropin] | > ouabain; F2,7 = 154.4, p < 0.001 | 17 | 5.27 | > ouabain; F2,7 = 54.31, p < 0.001 | 6.49 |  |  |  |  |  | 
CO[C@H]1C[C@H](O[C@H]2CC[C@]3(C=O)[C@H]4CC[C@]5(C)[C@@H](C6=CC(=O)OC6)CC[C@]5(O)[C@@H]4CC[C@]3(O)C2)O[C@H](C)[C@H]1O [cymarin] | > ouabain; F2,6 = 514.53, p < 0.001 | 21 | 5.16 |  |  | ninefold | 6.48 | > ouabain; F2,6 = 6.37, p = 0.03 | 36 | 2 | 
C[C@]12CC[C@H](O)C[C@H]1CC[C@@H]1[C@@H]2CC[C@]2(C)[C@@H](C3=CC(=O)OC3)CC[C@]12O [digitoxigenin] | > ouabain; F2,6 = 54.05, p < 0.001 |  | 4.61 | < ouabain; F2,6 = 180.27, p < 0.001 | 5.39 |  |  | < ouabain; F2,6 = 17.5, p = 0.003 |  |  | 5.56
C[C@H]1O[C@@H](O[C@H]2[C@@H](O)C[C@H](O[C@H]3[C@@H](O)C[C@H](O[C@H]4CC[C@@]5(C)[C@H](CC[C@@H]6[C@@H]5CC[C@]5(C)[C@@H](C7=CC(=O)OC7)CC[C@]65O)C4)O[C@@H]3C)O[C@@H]2C)C[C@H](O)[C@@H]1O [digitoxin, reference compound] | > ouabain; F2,6 = 116.84, p < 0.001 |  | 4.83 |  |  |  |  | = ouabain; F2,6 = 5.07, p = 0.05 |  |  | 5.86
C[C@]12CC[C@H](O)C[C@H]1CC[C@@H]1[C@@H]2C[C@@H](O)[C@]2(C)[C@@H](C3=CC(=O)OC3)CC[C@]12O [digoxigenin] | < ouabain; F2,6 = 30.1, p < 0.001 |  | 3.42 |  |  |  |  | < ouabain; F2,6 = 151.91, p < 0.001 |  |  | 4.93
C[C@@H]1O[C@@H](O[C@H]2CC[C@]3(C=O)[C@H]4CC[C@]5(C)[C@@H](c6ccc(=O)oc6)CC[C@]5(O)[C@@H]4CC[C@]3(O)C2)[C@H](O)[C@H](O)[C@H]1O[C@@H]1O[C@H](CO)[C@@H](O)[C@H](O)[C@H]1O [hellebrin] | > ouabain; F2,6 = 1420.98, p < 0.001 |  | 6.07 |  |  |  |  |  |  |  | 
C[C@]12CC[C@H]3[C@@H](CC[C@]4(O)C[C@@H](O)CC[C@]34C=O)[C@@]1(O)CC[C@@H]2C1=CC(=O)OC1 [strophanthidin] | > ouabain; F2,6 = 9.41, p = 0.01 |  | 4.19 |  |  |  |  |  |  |  | 
